In patent US10391089B2, “PRMT5 inhibitors and uses therof” (Epizyme, Inc., priority 2012, dated 2019) one finds EC50 data, which are given here for five molecules.

The assay deals with symmetric di-methyl arginine in Z-138 cells. As to the kind of experiment: Z-138 Methylation Assay (In Cell Western for symmetric di-methyl arginine and DNA content). It counts as cell-based. The following applies: Homo sapiens; Z-138 methylation In Cell Western; read-out: ICW EC50. An excerpt: [formula] [formula] Where top and bottom are the normally allowed to float, but may be fixed at 100 or 0 respectively in a 3-parameter fit. The Hill Coefficient normally allowed to float but may also be fixed at 1 in a 3-parameter fit. Y is the % inhibition and X is the compound concentration.
RPMI/Glutamax medium, penicillin-streptomycin, heat inactivated fetal bovine serum, and D-PBS were purchased from Life Technologies, Grand Island, N.Y., USA. Odyssey blocking buffer, 800CW goat anti-rabbit IgG (H+L) antibody, and Licor Odyssey infrared scanner were purchased from Licor Biosciences, Lincoln, Nebr., USA. Symmetric di-methyl arginine antibody was purchased from EMD Millipore, Billerica, Mass., USA. 16% Paraformaldehyde was purchased from Electron Microscopy Sciences, Hatfield, Pa., USA.
Cell Treatment, in Cell Western (ICW) for Detection of Symmetric Di-Methyl Arginine and DNA Content.
Z-138 cells were seeded in assay medium at a concentration of 50,000 cells per mL to a 384-well cell culture plate with 50 μL per well. Compound (100 nL) from 384 well source plates was added directly to 384 well cell plate. Plates were incubated at 37° C., 5% CO2 for 96 hours. […] Plates were incubated at room temperature for 30 minutes then incubated at 37° C., 5% CO2 for 5 hours. After the incubation, 40 μL per well of 8% paraformaldehyde in PBS (16% paraformaldahyde was diluted to 8% in PBS) was added to each plate and incubated for 30 minutes. […] Next 30 μL per well of Odyssey blocking buffer were added to each plate and incubated 1 hour at room temperature. Blocking buffer was removed and 20 μL per well of primary antibody was added (symmetric di-methyl arginine diluted 1:100 in Odyssey buffer with 0.1% Tween 20 (v/v)) and plates were incubated overnight (16 hours) at 4° C. Plates were washed 5 times with 100 μL per well of wash buffer. Next 20 μL per well of secondary antibody was added (1:200 800CW goat anti-rabbit IgG (H+L) antibody, 1:1000 DRAQ5 (Biostatus limited) in Odyssey buffer with 0.1% Tween 20 (v/v)) and incubated for 1 hour at room temperature. The plates were washed 5 times with 100 μL per well wash buffer then 1 time with 100 μL per well of water. Plates were allowed to dry at room temperature then imaged on the Licor Odyssey machine which measures integrated intensity at 700 nm and 800 nm wavelengths. Both 700 and 800 channels were scanned.
First, the ratio for each well was determined by:
Each plate included fourteen control wells of DMSO only treatment (minimum inhibition) as well as fourteen control wells for maximum inhibition treated with 3 μM of a reference compound (Background wells). The average of the ratio values for each control type was calculated and used to determine the percent inhibition for each test well in the plate. Reference compound was serially diluted three-fold in DMSO for a total of nine test concentrations, beginning at 3 μM. Percent inhibition was determined and IC50 curves were generated using triplicate wells per concentration of compound.

As for `O=C(NC[C@H](O)CN1CCc2ccccc2C1)c1cncc(NC2COC2)c1` [Compound 299], the EC50 was less than 100 nM. The same measure for `CS(=O)(=O)N1CCC(Oc2cncc(C(=O)NC[C@H](O)CN3CCc4ccccc4C3)c2)CC1` [Compound 290]: less than 100 nM.

As to `CN1CCC(Oc2cncc(C(=O)NC[C@H](O)CN3CCc4ccccc4C3)c2)CC1` [Compound 288], the EC50 fell in the range of 101 to 1000 nM. Consider `O=C(NC[C@H](O)CN1CCc2ccccc2C1)c1cccc2ccccc12` [Compound 295], for which the EC50 lay within 101 to 1000 nM. For the molecule `O=C(NC[C@H](O)CN1CCc2ccccc2C1)c1cncc(NC2CCN(CC(F)(F)F)C2)c1` (some centres unmarked) [Compound 303], the concentration for a half-maximal effect (EC50) is less than 100 nM.
